# Molecular target: T1, Limulus amoebocyte lysate factor G (Tachypleus tridentatus, UniProt Q27082)
# T1 construct: Prepared from Japanese horseshoe crab, T. tridentatus; from tissue; host or cells: amoebocyte (hemocyte) lysate of the Japanese horseshoe crab T. tridentatus, factor G fraction
# T1 sequence (Q27082 20-673): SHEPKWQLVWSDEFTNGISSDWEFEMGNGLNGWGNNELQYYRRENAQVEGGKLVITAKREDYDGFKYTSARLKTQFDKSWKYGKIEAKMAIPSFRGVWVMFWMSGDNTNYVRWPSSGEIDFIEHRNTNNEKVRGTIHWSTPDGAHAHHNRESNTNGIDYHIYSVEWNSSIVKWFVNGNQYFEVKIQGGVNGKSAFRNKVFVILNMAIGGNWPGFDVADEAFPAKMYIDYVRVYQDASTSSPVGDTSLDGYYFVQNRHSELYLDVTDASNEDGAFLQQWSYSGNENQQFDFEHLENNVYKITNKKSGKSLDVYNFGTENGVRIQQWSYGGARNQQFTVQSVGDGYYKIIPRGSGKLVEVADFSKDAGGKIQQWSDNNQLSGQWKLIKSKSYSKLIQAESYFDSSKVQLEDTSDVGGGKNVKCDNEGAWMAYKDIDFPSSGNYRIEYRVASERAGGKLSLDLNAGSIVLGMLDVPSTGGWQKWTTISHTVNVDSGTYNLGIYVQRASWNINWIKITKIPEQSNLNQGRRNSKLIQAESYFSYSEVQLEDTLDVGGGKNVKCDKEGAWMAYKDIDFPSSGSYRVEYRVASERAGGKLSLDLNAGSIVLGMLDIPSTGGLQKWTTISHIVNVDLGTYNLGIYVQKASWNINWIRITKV
# T1 sequence (Q27083 32-309 partner): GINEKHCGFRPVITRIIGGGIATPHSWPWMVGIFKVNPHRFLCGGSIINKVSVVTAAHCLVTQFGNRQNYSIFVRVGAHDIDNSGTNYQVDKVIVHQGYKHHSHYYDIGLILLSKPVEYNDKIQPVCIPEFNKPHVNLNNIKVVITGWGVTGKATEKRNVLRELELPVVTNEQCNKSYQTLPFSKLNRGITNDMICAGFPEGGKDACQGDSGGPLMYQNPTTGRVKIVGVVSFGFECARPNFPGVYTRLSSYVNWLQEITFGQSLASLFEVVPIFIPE
# Assay: Activation titer determination method of factor G activation inhibiting substance (GI)
# Format: biochemical, T. tridentatus
# Conditions: 10 pg GA (No. 106); 37° C., 30 minutes; GI amount causing 100% inhibition of factor G activation = 100 units
# Method: The factor G activation inhibitory titer was measured according to the following activation titer determination method of factor G activation inhibiting substance and represented as units per mg. Activation titer determination method of factor G activation inhibiting substance (hereinafter, sometimes abbreviated as GI)
# A 200 μl portion of a reaction mixture has the following composition. […]
# After incubating the above-described reaction mixture at 37° C. for 30 minutes, 0.5 ml each of 0.04% sodium nitrite (0.48M HCl solution), 0.3% ammonium sulfamate and 0.07% N-1-naphthylethylenediamine dihydrochloride was added to the reaction mixture to effect coloration by diazo-coupling. The amount of released pNA was determined by measuring an absorbance at 545 nm (A545). GI activity was calculated according to the following equation; [formula]
# Under these conditions, the GI amount which causes 100% inhibition of an activation of factor G by GA is defined as 100 units.
# (Note 1) Water-insoluble samples are dissolved in 0.3M NaOH and neutralized with an equal volume of 0.3M HCl.
# (Note 2) GPC fractionation-purified product of the curdian sonicated product prepared in the above-described Preparation Example 5 (Table-2, No. 106, molecular weight 216,000).
# (Note 3) Prepared from Japanese horseshoe crab, T. tridentatus according to the article [T. Obayasi et al., Clin. Chim. Acta., 149, 55-65 (1985)].
row,Compound,Factor G Activation Inhibitory Titer
1,"OC[C@H]1O[C@@H](O[C@@H]2[C@@H](O)[C@H](O[C@H]3[C@H](O)[C@@H](CO)OC(O)[C@@H]3O)O[C@H](CO)[C@H]2O)[C@H](O)[C@@H](O)[C@@H]1O (some centres unmarked) [compound 6, Laminaritriose]","4,670 unit/mg"
2,"OC[C@H]1O[C@@H](O[C@@H]2[C@@H](O)[C@H](O[C@@H]3[C@@H](O)[C@H](O[C@H]4[C@H](O)[C@@H](CO)OC(O)[C@@H]4O)O[C@H](CO)[C@H]3O)O[C@H](CO)[C@H]2O)[C@H](O)[C@@H](O)[C@@H]1O (some centres unmarked) [compound 7, Laminaritetraose]","20,000 unit/mg"
3,Partially carboxymethylated (1→3)-β-D-glucan (DS = 0.03) GPC fraction 1 [compound 39],"117,000 unit/mg"
4,Partially sulfated laminaran [compound 44],"117,000 unit/mg"
5,"OC[C@H]1O[C@@H](O[C@@H]2[C@@H](O)[C@H](O[C@@H]3[C@@H](O)[C@H](O[C@@H]4[C@@H](O)[C@H](O[C@@H]5[C@@H](O)[C@H](O[C@H]6[C@H](O)[C@@H](CO)OC(O)[C@@H]6O)O[C@H](CO)[C@H]5O)O[C@H](CO)[C@H]4O)O[C@H](CO)[C@H]3O)O[C@H](CO)[C@H]2O)[C@H](O)[C@@H](O)[C@@H]1O (some centres unmarked) [compound 9, Laminarihexaose]","55,000 unit/mg"
6,"OC[C@H]1O[C@@H](O[C@@H]2[C@@H](O)[C@H](O[C@@H]3[C@@H](O)[C@H](O[C@@H]4[C@@H](O)[C@H](O[C@H]5[C@H](O)[C@@H](CO)OC(O)[C@@H]5O)O[C@H](CO)[C@H]4O)O[C@H](CO)[C@H]3O)O[C@H](CO)[C@H]2O)[C@H](O)[C@@H](O)[C@@H]1O (some centres unmarked) [compound 8, Laminaripentaose]","39,800 unit/mg"
7,Partially methylated (1→3)-β-D-glucan [compound 43],"93,300 unit/mg"
8,"OC[C@H]1O[C@@H](O[C@H]2[C@H](O)[C@@H](CO)OC(O)[C@@H]2O)[C@H](O)[C@@H](O)[C@@H]1O (some centres unmarked) [compound 5, Laminaribiose]",214 unit/mg
9,Partially carboxymethylated (1→3)-β-D-glucan (DS = 0.03) GPC fraction 2 [compound 40],"91,200 unit/mg"
10,"OC[C@H]1OC(O)[C@H](O)[C@@H](O)[C@@H]1O (some centres unmarked) [compound 108, Glucose]",< 100 unit/mg
11,Partially carboxymethylated laminaran [compound 42],"3,630,000 unit/mg"
12,Partially carboxymethylated (1→3)-β-D-glucan (DS = 1.20) [compound 107],< 100 unit/mg
13,"OC[C@H]1O[C@@H](O[C@@H]2[C@@H](O)[C@H](O[C@@H]3[C@@H](O)[C@H](O[C@@H]4[C@@H](O)[C@H](O[C@@H]5[C@@H](O)[C@H](O[C@@H]6[C@@H](O)[C@H](O[C@H]7[C@H](O)[C@@H](CO)OC(O)[C@@H]7O)O[C@H](CO)[C@H]6O)O[C@H](CO)[C@H]5O)O[C@H](CO)[C@H]4O)O[C@H](CO)[C@H]3O)O[C@H](CO)[C@H]2O)[C@H](O)[C@@H](O)[C@@H]1O (some centres unmarked) [compound 10, Laminariheptaose]","103,000 unit/mg"
14,Partially carboxymethylated (1→3)-β-D-glucan (DS = 0.03) GPC fraction 3 [Sample No. 41],"80,000 unit/mg"

# Reference: patent publication US5401647A, “Method of preparing Limulus amoebocyte lysate” (Seikagaku Kogyo Kabushiki Kaisha (Seikagaku Corporation), priority 1990, dated 1995)
